Data as given in patent US20220257741A1, “COMBINATION THERAPY FOR CANCER” (IO Biotech ApS, priority 2016, published 2022).

How the values were obtained:
[1] = system: TC-1 tumour; assay: TC-1 tumour model, IDO-Pep1 with 1-MT (Example 9); format: in vivo, C57BL/6 mice; details: 1-MT 2 mg/ml in drinking water; IDO-Pep1 100 μg/mouse s.c.
[2] = system: THP-1 cells; assay: 51Cr-release assay, PBMC killing of THP-1 (Example 5); format: cell-based; details: peptide 0.1 μM
Method: (§1) Buffycoats were thawed (day 0), washed twice, resuspended in medium, counted and plated into wells as set out in Table Z5. THP-1 cells were irradiated with 30 GY and washed twice in medium. THP-1 cells were counted and added to PBMC containing wells as set out in Table Z5 (total volume 2 ml). Plates were placed in an incubator at 37 degrees. On day 7, 1 ml supernatant/well was removed. Fresh irradiated THP-1 cells were prepared and counted as above and 1 ml added to the wells as shown in Table Z5 Cells were harvested and analyzed for cytotoxic activity on day 23. A standard ^51Cr-release assay was used to measure the cytotoxic potential of the peptide treated PBMCs. ^51Cr labeled THP-1 cells were used as target cells and peptide treated PBMCs as effector cells. Triton-X treated wells was used as maximum measurable lysis and medium alone as minimum lysis.
% specific lysis=((CPMsample−cpmminimum)/(cpmmaximum−cpmminimum))×100%

[3] = system: PBMC; assay: Direct IFN-γ ELISpot of patient PBMC stimulated with IO102 peptide; format: cell-based, human; details: patient PBMC at baseline, 5 μM peptide
[4] = system: THP-1 cells; assay: 51Cr-release assay, PBMC killing of THP-1 (Example 4); format: cell-based; details: peptide 0.1 μM, day 17, range of E/T ratios
Method: as §1, with “Z4.” for “Z5.”, “Z4” for “Z5”, “days 7 and 14,” for “day 7,”, “removed.” for “removed. Fresh irradiated THP-1 cells were prepared and counted as above and 1 ml added to the wells as shown in Table Z5”, “17.” for “23.”
% Specific lysis=((cpmsample−cpmminimum)/(cpmmaximum−cpmminimum))×100%

[5] = system: CMV-specific CD8 T cells; assay: Boost effect on CMV peptide-induced stimulation of T cells (tetramer staining, Example 2); format: cell-based; details: peptide added to CMV stimulated cell cultures, day 15
Method: Day 1: • Buffy coat samples were thawed, washed twice, resuspended in medium. Cells were counted. • Cells were then added to the wells of cell culture plates at 5×10^6/0.5 ml in X-VIVO+5% HS • Wells were stimulated with CMV peptide for 2 hours at room temperature. The CMV peptide used was HCMV pp65 495-504 ([…]). • After 2 hours IDO5, IO102 or an irrelevant HIV peptide used as control were added according to Table X and plates incubated for additional 2 hours at room temperature. • Added 1500 microL X-VIVO/5% HS to each well and placed plates in an incubator at 37° C.
Day 2 and 9: • IL2 was added ([…]
Day 8: • Wells were restimulated with IDO5, IO102 or HIV peptides, added according to table X before incubation for 2 hours at room temperature. • After restimulation the contents of each well were split in two and 1.5 ml X-VIVO+5% HS/well was added. • Plates were placed in an incubator at 37° C.
Day 15: • Cells were harvested and analysed by flow cytometry. • The percentage of CMV-specific CD8 T cells in each well was identified by using a CD8 monoclonal antibody (mAb) as well as the tetramer complexes HLA-A2/CMV pp65 495-504. • As control, cells were in addition stained with the tetramer complex HLA-A2/HIV-1 po1476-484 and CD8 mAb (data not shown).

[6] = system: IDO-specific T cell cultures; assay: Intracellular cytokine staining of IO102 stimulated T-cell cultures; format: cell-based, human; details: after four weeks of in vitro IO102 stimulation, patients #02, #05, #07
Method: PBMCs were stimulated with IO102 peptide in X-vivo 15 with 5% human AB serum and 120 U/ml IL2 (Novartis, Denmark) in 24 well plates (Nunc, Fischer Scientific). Initially, 20 μM peptide was used, and the cultures were re-stimulated every 7 days with a log10 decreased concentration of peptide for every week. Cell-cultures were supplemented with new IL2 every 7-10 days. Cells were kept at a concentration of 3-4×10^6/well.
For enrichment and expansion of the IDO-specific T cells, cultured cells were restimulated, after four weeks of culture, with 20 μM peptide and enriched with the TNF-α Secretion Assay (Miltenyi Biotec) according to the manufacturer's instructions. Cells were peptide stimulated 2.5 hours before staining with the primary antibody. Enriched cells were expanded in a modified rapid expansion protocol (see below).
T cells enriched for IDO-reactivity were expanded, and approximately 1-2×10^5 cells were used initially. […] Cultures were regularly assessed with regard to cell-numbers and colour of the media, and transferred to T80 or T175 flasks in addition to adding new media if appropriate. Cells were harvested after total 14 days of culture and either analyzed directly or cryopreserved in […] AB serum and 10% dimethyl sulphoxide. […]

[7] = system: CT26 tumours; assay: CT26 tumour model, prophylactic vaccination (Example 10); format: in vivo, BALB/c mice; details: 100 μg peptide + 30 μg CpG in Montanide, 7 days prior to tumour challenge
Method: BALB/c mice were prophylactically vaccinated with a mouse IDO peptide IDO-EP2 ([…]; SEQ ID NO: 34) and challenged with CT26 tumours 7 days later. The efficacy of the peptide vaccine was assessed by tumour burden. The mouse IDO peptide sequence (IDO-Pep1) was selected to provide a murine analog for the human IDO peptides tested in the earlier Examples, because the sequence of murine IDOL differs to that of human IDO1.
6-10 week-old BALB/c mice were immunized by subcutaneous injection at the base of the tail of 100 μg peptide IDO-EP2+30 μg CpG in 100 μL, Montanide adjuvant [Montanide ISA 51 VG (Seppic)] prepared as a 1:1 emulsification. Immunizations were carried out 7 days prior to tumour challenge. For CT26 tumour cell engraftment, each mouse received two subcutaneous injections (one on each flank) of 1×10^5 CT26 in 100 μL serum free DMEM. Caliper measurements of tumour length and width were recorded every 3-4 days beginning at day 6. Tumour volume was calculated using the formula 0.52(L×W^2). Mice were euthanized when the combined tumour volume reached the defined endpoint of approximately 2,000 mm^3.

## Cn1cc(C[C@H](N)C(=O)O)c2ccccc21 [1-MT, 1-methyltryptophan]
[1]
  Therapeutic efficacy (survival): modest therapeutic efficacy

## DTLLKALLEIASCLEKALQVF (listed as Homo sapiens) [IO102, 21 amino acid peptide, residues 194-214 of indoleamine 2,3-dioxygenase]
[2]; day 23, E/T ratios 2:1-60:1
  Allogenic killing of THP-1 cells compared to control peptide IDO scrambled: enhanced the allogenic killing of the THP-1 cells
[2]; day 23, low E/T ratios
  Lysis of THP-1 cells compared to IDO5 peptide: more efficient lysis of THP-1 cells
[3]
  Pre-treatment IFN-γ ELISpot responses towards IO102: none of the patients had detectable pre-treatment responses
[4]
  Allogenic killing (lysis) of THP-1 cells by PBMCs: enhanced the allogenic killing of the THP-1 cells
[5]
  Fraction of CMV-specific T cells: larger fraction of CMV-specific T cells compared to adding IDO5/IO101
[6]
  Cytokine-positive T cells upon stimulation with IO102: enrichment of cytokine-positive T cells was demonstrated, primarily CD4+

## LPTLSTDGL (listed as Homo sapiens) [IDO-EP2]
[7]
  Anti-tumour effect (tumour volume): anti-tumour protective effect
